Numbered stars: 1 amine (or outer) side, 2 acyl side, 3 side chain; on linkers, the order of the positions; unused ones are H or OH. Bridge positions count the residues as written; N and C are the ends. Square brackets hold non-standard residues; d marks the D form. Peptide text beside a SMILES is read from it. * marks the point of attachment. C20 diacid = O=C(O)CCCCCCCCCCCCCCCCCCC(=O)*; γGlu = O=C(O)[C@H](CCC(=O)[*:2])N[*:1]; Hyp = O=C(O)[C@@H]1C[C@@H](O)CN1; NMeI = CC[C@H](C)[C@H](NC)C(=O)O; Sar = CNCC(=O)O
Key:
[1] = Solubility assessment (turbidity absorbance at 325 nm); format: physicochemical; details: stock 2 mg/ml diluted 1:1, ambient temperature (typically 25°C), n=1; for Solubility, Acetate buffer pH 4: 100 mM acetate buffer pH 4.0; for Solubility, Acetate buffer pH 5: 100 mM acetate buffer pH 5.0; for Solubility, Histidine buffer pH 6: 100 mM histidine buffer pH 6.0; for Solubility, Histidine buffer pH 7: 100 mM histidine buffer pH 7.0; for Solubility, Phosphate buffer pH 6: 100 mM phosphate buffer pH 6.0; for Solubility, Phosphate buffer pH 7: 100 mM phosphate buffer pH 7.0; for Solubility, Phosphate buffer pH 7.5: 100 mM phosphate buffer pH7.5
How it was run: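 Read-out: turbidity as absorbance at 325 nm (280 nm also read), single samples, ambient temperature of typically 25°C. Samples were a 1:1 mix of 2 mg/ml stock (water, pH 2.5) with 100 mM acetate, histidine or phosphate buffers spanning pH 4.0–7.5. Cut-off: A325 ≤ 0.02 indicates ≥ 1 mg/ml.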

[2] = molecular target: T1, human calcitonin receptor (hCTR2) (Homo sapiens, UniProt P30988); assay: hCTR2 assay: induction of cAMP (AlphaScreen cAMP Assay kit) in COS7 cells expressing hCTR2; format: cell-based; details: cAMP induction in COS7 cells expressing hCTR2; average of a minimum of 3 determinations; read-out: hCTR2 EC50
T1 construct: expressed in transfected cells
T1 sequence (P30988 25-474): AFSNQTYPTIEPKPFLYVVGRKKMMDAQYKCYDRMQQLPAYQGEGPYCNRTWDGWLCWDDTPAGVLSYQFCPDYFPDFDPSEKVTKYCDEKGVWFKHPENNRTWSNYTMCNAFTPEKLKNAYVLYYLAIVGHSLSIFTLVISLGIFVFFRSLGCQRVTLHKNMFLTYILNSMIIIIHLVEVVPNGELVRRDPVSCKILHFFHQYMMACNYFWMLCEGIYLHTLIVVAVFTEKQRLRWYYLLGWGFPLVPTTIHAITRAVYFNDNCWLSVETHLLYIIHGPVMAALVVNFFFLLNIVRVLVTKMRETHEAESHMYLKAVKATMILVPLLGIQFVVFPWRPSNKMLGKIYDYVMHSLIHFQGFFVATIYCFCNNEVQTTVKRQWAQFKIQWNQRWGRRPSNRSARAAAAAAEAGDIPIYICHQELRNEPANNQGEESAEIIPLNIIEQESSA
How it was run: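 Cells were seeded one day ahead, washed, then exposed to rising peptide concentrations for 15 min at 37° C in the presence of 100 µM IBMX. After lysis for 10 min at room temperature, cAMP was quantified by AlphaScreen and EC50 values derived by 4PL fitting.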

[3] = molecular target: T2, human amylin receptor 3 (hAMYR3) consisting of hCTR2 co-expressed with human Receptor Activity Modifying Protein 3 (hRAMP3) (Homo sapiens, UniProt O60896+P30988); assay: hAMYR3 assay: induction of cAMP (AlphaScreen cAMP Assay kit) in COS7 cells expressing hAMYR3; format: cell-based; details: cAMP induction in COS7 cells expressing hAMYR3; average of a minimum of 3 determinations; read-out: hAMY R3 EC50
T2 construct: expressed in transfected cells
T2 sequence (P30988 25-474): T1 sequence (P30988 25-474)
T2 sequence (O60896 24-148 partner): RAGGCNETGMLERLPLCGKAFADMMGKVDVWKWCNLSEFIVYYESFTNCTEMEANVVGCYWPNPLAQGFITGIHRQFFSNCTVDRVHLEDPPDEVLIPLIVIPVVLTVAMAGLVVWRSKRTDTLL
How it was run: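 cAMP accumulation read by AlphaScreen in lysates of RAMP-naive COS7 cells stably transfected with hCTR2 plus hRAMP3. Cells exposed to peptide dilutions for 15 min, 37° C, with 100 µM IBMX; 4PL fitting gave EC50 and efficacy relative to pramlintide.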

| Solubility, Acetate buffer pH 4 [1] | Solubility, Acetate buffer pH 5 [1] | Solubility, Histidine buffer pH 6 [1] | Solubility, Histidine buffer pH 7 [1] | Solubility, Phosphate buffer pH 6 [1] | Solubility, Phosphate buffer pH 7 [1] | Solubility, Phosphate buffer pH 7.5 [1] | EC50 [2] [nM] | EC50 [3] [nM] | Structure (SMILES) |
| --- | --- | --- | --- | --- | --- | --- | --- | --- | --- |
| SS (SS indicates solubility ≥ 1mg/ml) | SS (SS indicates solubility ≥ 1mg/ml) | SS (SS indicates solubility ≥ 1mg/ml) | SS (SS indicates solubility ≥ 1mg/ml) | SS (SS indicates solubility ≥ 1mg/ml) | SS (SS indicates solubility ≥ 1mg/ml) | SS (SS indicates solubility ≥ 1mg/ml) | 0.078 | 0.11 | CC[C@H](C)[C@@H](C(=O)N[C@@H](CC(C)C)C(=O)N[C@@H](CO)C(=O)N[C@@H](CO)C(=O)N[C@H](C(=O)N[C@@H](CCC(=O)O)C(=O)N[C@H](C(=O)NCC(=O)N[C@@H](CO)C(=O)N[C@@H](CCC(=O)O)C(=O)N[C@H](C(=O)N1C[C@H](O)C[C@H]1C(N)=O)[C@@H](C)O)C(C)C)[C@@H](C)O)N(C)C(=O)CN(C)C(=O)[C@H](Cc1ccccc1)NC(=O)[C@H](CO)NC(=O)[C@H](CO)NC(=O)[C@H](CCCNC(=N)N)NC(=O)[C@H](Cc1c[nH]cn1)NC(=O)[C@H](CC(C)C)NC(=O)[C@H](Cc1ccccc1)NC(=O)[C@H](CCC(=O)O)NC(=O)[C@H](C)NC(=O)[C@H](CC(C)C)NC(=O)[C@H](CCCNC(=N)N)NC(=O)[C@H](CCC(=O)O)NC(=O)[C@@H](NC(=O)[C@H](C)NC(=O)[C@@H]1CSSC[C@H](NC(=O)[C@H](CCCNC(=N)N)NC(=O)CC[C@H](NC(=O)CCCCCCCCCCCCCCCCCCC(=O)O)C(=O)O)C(=O)NCC(=O)N[C@@H]([C@@H](C)O)C(=O)N[C@@H](C)C(=O)N[C@@H]([C@@H](C)O)C(=O)N1)[C@@H](C)O [Compound 167, [19CD]-isoGlu-RC()GTATC()ATERLAEFLHRSSF-Gly(Me)-Ile(Me)-LSSTEVGSET-Hyp-NH2] ({C20 diacid-γGlu}-RCGTATCATERLAEFLHRSSF[Sar][NMeI]LSSTEVGSET[Hyp]-NH2; disulfide 2-7) |
| SS (SS indicates solubility ≥ 1mg/ml) | II (II indicates solubility ≤ 1 mg/ml) | SS (SS indicates solubility ≥ 1mg/ml) | SS (SS indicates solubility ≥ 1mg/ml) | SS (SS indicates solubility ≥ 1mg/ml) | SS (SS indicates solubility ≥ 1mg/ml) | SS (SS indicates solubility ≥ 1mg/ml) | 0.57 | 0.7 | CC[C@H](C)[C@@H](C(=O)N[C@@H](CC(C)C)C(=O)N[C@@H](CO)C(=O)N[C@@H](CO)C(=O)N[C@H](C(=O)N[C@@H](CCC(=O)O)C(=O)N[C@H](C(=O)NCC(=O)N[C@@H](CO)C(=O)N[C@@H](CCC(=O)O)C(=O)N[C@H](C(=O)N1C[C@H](O)C[C@H]1C(N)=O)[C@@H](C)O)C(C)C)[C@@H](C)O)N(C)C(=O)[C@H](C)NC(=O)CN(C)C(=O)[C@H](Cc1ccccc1)NC(=O)[C@H](CO)NC(=O)[C@H](CO)NC(=O)[C@H](CO)NC(=O)[C@H](CO)NC(=O)[C@H](CCCNC(=N)N)NC(=O)[C@H](Cc1c[nH]cn1)NC(=O)[C@H](CC(C)C)NC(=O)[C@H](Cc1ccccc1)NC(=O)[C@H](CCC(=O)O)NC(=O)[C@H](C)NC(=O)[C@H](CC(C)C)NC(=O)[C@H](CCCNC(=N)N)NC(=O)[C@H](CCC(=O)O)NC(=O)[C@@H](NC(=O)[C@H](C)NC(=O)[C@@H]1CSSC[C@H](NC(=O)[C@H](CCCCN)NC(=O)[C@H](CCCCN)NC(=O)CC[C@H](NC(=O)CCCCCCCCCCCCCCCCCCC(=O)O)C(=O)O)C(=O)N[C@@H](CCC(=O)O)C(=O)N[C@@H]([C@@H](C)O)C(=O)N[C@@H](C)C(=O)N[C@@H]([C@@H](C)O)C(=O)N1)[C@@H](C)O [Compound 168, [19CD]-isoGlu-KKC()ETATC()ATERLAEFLHRSSSSF-Gly(Me)-A-Ile(Me)-LSSTEVGSET-Hyp-NH2] ({C20 diacid-γGlu}-KKCETATCATERLAEFLHRSSSSF[Sar]A[NMeI]LSSTEVGSET[Hyp]-NH2; disulfide 3-8) |
